The target of data set [1] is T1, MR (Homo sapiens, UniProt P08235).
T1 construct: expressed in transfected cells; host or cells: recombinant HeLa cell lines
T1 sequence (P08235 1-984): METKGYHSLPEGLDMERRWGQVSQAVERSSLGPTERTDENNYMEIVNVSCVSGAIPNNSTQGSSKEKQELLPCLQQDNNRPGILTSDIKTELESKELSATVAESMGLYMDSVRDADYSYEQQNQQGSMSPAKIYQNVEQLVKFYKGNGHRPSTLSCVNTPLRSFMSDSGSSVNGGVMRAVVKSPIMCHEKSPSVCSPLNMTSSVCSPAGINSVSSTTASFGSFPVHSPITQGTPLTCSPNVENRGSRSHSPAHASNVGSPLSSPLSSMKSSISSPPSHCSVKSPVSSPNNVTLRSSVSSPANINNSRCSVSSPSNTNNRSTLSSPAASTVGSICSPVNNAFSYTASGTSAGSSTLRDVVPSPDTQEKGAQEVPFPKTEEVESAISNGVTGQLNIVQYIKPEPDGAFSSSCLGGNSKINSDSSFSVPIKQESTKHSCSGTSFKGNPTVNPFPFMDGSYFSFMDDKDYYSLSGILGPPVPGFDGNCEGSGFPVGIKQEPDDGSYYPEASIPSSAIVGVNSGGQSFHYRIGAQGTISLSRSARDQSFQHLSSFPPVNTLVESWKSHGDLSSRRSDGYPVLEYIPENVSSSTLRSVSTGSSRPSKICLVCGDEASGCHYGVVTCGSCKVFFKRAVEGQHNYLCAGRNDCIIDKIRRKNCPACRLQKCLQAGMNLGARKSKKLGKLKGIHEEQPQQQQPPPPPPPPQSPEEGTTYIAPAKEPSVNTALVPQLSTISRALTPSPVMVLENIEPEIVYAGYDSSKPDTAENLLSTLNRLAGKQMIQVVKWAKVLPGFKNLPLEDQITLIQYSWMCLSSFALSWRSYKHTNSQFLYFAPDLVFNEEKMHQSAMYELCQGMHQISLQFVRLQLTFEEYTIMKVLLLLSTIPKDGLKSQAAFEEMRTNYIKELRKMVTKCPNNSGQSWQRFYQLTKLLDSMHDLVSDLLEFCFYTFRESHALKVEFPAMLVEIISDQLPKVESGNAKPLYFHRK
Description: Nuclear receptor profiling, luciferase reporter in recombinant HeLa cells. Format: cell-based. As to conditions: IA = Inactive. Here is the method:
(§1) Nuclear receptor profiling, excluding retinoid X receptor (RXR), was previously described in detail.[24] Briefly, profiling was done using the Steady‐Glo luciferase assay kit (Promega, E2550) in recombinant HeLa cell lines expressing the respective receptors. Compounds were treated at nine doses (n = 2/dose) from 0.00015–10 µM. Data were normalized to minimum and maximum controls and 4‐parameter logistic regression fitting (Figure S2) was performed in XLfit software (IDBS).
In general terms: In a reporter assay the amount or activity of a reporter protein is the signal.

The target of data set [2] is T2, RARα (Homo sapiens, UniProt P10276).
T2 construct: expressed in transfected cells; host or cells: recombinant HeLa cell lines
T2 sequence (P10276 1-462): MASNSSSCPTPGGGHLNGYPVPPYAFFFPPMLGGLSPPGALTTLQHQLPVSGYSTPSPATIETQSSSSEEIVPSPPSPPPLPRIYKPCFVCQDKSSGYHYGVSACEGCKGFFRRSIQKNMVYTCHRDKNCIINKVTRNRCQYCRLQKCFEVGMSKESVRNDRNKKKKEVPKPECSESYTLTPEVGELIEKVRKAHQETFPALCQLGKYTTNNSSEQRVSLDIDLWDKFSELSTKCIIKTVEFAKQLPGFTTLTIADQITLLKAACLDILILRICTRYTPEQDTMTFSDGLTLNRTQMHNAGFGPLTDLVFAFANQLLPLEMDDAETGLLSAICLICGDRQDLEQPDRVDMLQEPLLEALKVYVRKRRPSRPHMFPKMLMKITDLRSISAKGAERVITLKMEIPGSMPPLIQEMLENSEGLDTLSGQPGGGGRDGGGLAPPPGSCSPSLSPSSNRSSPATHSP
The data set is described as above. Format: cell-based. How it is done: as §1

Data set [3] has as its target T3, RARβ (Homo sapiens, UniProt P10826).
T3 construct: expressed in transfected cells; host or cells: recombinant HeLa cell lines
T3 sequence (P10826 1-455): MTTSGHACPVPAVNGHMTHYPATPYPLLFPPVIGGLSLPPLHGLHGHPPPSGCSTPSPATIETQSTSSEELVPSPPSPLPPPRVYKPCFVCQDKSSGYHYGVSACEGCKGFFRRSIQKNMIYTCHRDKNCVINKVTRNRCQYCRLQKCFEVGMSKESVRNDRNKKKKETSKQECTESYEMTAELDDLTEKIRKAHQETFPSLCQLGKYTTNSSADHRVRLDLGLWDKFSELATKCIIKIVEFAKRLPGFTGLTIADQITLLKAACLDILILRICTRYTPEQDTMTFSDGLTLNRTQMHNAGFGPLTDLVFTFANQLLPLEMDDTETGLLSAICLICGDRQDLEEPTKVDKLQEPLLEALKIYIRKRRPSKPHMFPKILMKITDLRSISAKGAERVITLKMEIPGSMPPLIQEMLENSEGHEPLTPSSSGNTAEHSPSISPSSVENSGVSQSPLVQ
The description is as above. The class given is cell-based. How it is done:
as §1

The target of data set [4] is T4, RARγ (Homo sapiens, UniProt P13631).
T4 construct: expressed in transfected cells; host or cells: recombinant HeLa cell lines
T4 sequence (P13631 1-454): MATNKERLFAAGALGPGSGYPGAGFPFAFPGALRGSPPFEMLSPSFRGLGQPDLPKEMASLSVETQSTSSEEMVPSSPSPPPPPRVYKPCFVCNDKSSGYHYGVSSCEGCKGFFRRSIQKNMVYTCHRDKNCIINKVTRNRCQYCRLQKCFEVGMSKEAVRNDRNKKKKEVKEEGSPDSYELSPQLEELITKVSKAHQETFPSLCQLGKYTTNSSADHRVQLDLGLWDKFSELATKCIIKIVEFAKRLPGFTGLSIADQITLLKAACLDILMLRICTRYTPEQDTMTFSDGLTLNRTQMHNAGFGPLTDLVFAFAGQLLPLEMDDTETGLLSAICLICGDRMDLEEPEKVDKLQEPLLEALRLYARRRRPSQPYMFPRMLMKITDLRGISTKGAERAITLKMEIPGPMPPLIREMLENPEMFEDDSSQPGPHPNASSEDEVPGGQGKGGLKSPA
The data set is described as above. Format: cell-based. As to conditions: IA = Inactive. Here is the method: as §1

For data set [5], the target named is T5, LXRβ (Homo sapiens, UniProt P55055).
T5 construct: expressed in transfected cells; host or cells: recombinant HeLa cell lines
T5 sequence (P55055 1-460): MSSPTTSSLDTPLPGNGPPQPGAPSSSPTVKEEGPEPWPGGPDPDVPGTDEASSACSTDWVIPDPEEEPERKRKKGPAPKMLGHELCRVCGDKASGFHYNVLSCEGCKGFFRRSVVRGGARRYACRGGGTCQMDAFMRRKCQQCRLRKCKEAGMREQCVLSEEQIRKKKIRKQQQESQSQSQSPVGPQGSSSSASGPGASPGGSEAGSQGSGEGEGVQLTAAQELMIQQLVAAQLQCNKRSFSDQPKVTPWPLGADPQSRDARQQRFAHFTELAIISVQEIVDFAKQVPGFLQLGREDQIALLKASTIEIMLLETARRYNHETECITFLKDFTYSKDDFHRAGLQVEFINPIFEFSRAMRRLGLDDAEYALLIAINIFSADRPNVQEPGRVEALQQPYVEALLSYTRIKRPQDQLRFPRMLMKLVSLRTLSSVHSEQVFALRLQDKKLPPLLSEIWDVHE
The description is as above. Format: cell-based. How it is done: as §1

Data set [6] concerns the target T6, CYP2C19 (Homo sapiens, UniProt P33261).
T6 construct: from tissue; host or cells: human liver microsomes (per the earlier reading and the cited method)
The experiment in a line: CYP450 inhibition assay, human liver microsomes. The class given is biochemical. As to conditions: substrate omeprazole. For orientation: Liver microsomes are vesicles of endoplasmic reticulum, rich in cytochrome P450 enzymes.

Data set [7] deals with T7, CYP19 (Homo sapiens, UniProt P11511).
T7 construct: purchased Corning (Woburn, MA)
T7 sequence (P11511 1-503): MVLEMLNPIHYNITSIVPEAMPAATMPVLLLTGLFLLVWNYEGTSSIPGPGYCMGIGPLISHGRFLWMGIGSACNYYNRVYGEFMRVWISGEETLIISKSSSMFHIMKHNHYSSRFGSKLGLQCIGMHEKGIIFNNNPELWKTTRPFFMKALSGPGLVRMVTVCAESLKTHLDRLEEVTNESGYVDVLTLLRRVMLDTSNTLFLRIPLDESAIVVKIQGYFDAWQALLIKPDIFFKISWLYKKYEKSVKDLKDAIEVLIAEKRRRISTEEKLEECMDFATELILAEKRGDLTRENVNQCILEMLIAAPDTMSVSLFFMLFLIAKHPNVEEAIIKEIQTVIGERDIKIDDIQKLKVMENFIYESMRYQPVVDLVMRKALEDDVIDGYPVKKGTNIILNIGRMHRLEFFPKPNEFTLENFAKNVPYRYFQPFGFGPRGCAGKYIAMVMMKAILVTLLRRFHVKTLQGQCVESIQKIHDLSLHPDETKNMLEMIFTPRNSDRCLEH
The experiment in a line: Qualitative CYP19 screening, CYP19 Supersomes, HPLC-MS/MS. The class given is biochemical. Here is the method: (§2) CYP450 inhibition assays (excluding CYP19 and 1 µM CYP2C8) were performed as previously described.[31] Substrate metabolite formation was measured by HPLC‐MS/MS. Percent of control activity was determined by comparing metabolite peak areas with and without test compound. Qualitative screening of CYP2C8 (1 µM) and CYP19 is described in detail in Supporting Information. Reference compound IC50 values were determined by non‐linear regression analysis using Hill equation curve fitting.
In vitro CYP19 screening was carried out in triplicate using a modified HPLC-MS/MS protocol based on methodology provided by Admescope Ltd. DMSO stock solutions of test compounds, positive control liarozole, androstenedione substrate and solvent control were diluted with 100 mM phosphate buffer (pH 7.4) such that DMSO content in final assay conditions was 1% in a volume of 200 µL. Briefly, to a microfuge tube was added 1 µM substrate, 1 mM NAPDH, and 0.1-1 µM test compounds (final concentrations after enzyme addition) in phosphate buffer before pre-incubating for 2 min at 37 °C. CYP19/CYP450 reductase Supersomes™ enzyme (50 µL, 1.5 pmol/mL) was added to each tube, gently mixed, then incubated at 37 °C for 30 min. The reaction was quenched with an equal volume of acetonitrile containing cortisone internal standard (100 nM). […]

The target in data set [8] is T8, CYP2B6 (Homo sapiens, UniProt P20813).
T8 construct: from tissue; host or cells: human liver microsomes (per the earlier reading and the cited method)
T8 sequence (P20813 1-491): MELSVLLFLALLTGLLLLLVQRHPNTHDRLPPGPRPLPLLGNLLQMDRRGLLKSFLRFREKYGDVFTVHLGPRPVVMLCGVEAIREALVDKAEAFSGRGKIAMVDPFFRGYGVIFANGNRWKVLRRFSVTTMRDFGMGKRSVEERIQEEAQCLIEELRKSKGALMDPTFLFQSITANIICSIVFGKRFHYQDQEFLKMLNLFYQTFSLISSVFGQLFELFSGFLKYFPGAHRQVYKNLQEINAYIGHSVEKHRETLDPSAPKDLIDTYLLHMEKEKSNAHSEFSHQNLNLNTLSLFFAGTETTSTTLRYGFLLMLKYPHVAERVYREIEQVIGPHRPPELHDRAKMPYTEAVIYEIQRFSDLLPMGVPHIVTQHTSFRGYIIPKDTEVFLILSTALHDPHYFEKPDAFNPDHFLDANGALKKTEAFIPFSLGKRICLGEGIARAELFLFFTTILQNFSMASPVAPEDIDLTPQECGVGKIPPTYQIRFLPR
Description: CYP450 inhibition assay, human liver microsomes. The class given is biochemical. How it is done:
as §2

T6 sequence (P33261 whole entry): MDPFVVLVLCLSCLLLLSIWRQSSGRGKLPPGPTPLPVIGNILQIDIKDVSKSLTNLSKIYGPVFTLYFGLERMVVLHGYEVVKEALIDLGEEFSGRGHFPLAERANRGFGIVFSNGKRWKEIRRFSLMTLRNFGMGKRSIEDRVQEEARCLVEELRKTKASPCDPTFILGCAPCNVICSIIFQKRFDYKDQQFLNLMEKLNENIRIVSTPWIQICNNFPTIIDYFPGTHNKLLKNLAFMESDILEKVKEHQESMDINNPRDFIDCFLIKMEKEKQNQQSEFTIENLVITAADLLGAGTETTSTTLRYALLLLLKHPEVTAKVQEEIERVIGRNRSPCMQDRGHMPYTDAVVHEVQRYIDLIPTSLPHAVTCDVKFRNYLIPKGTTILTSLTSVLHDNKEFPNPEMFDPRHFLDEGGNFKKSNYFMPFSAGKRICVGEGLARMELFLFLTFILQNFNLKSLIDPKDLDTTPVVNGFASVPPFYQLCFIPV

As a reminder, the EC50 is the concentration that produces a half-maximal response. On to `C[C@]12C[C@H](O)[C@H]3[C@@H](CCC4=CC(=O)CC[C@@]43C)[C@@H]1CC[C@@H]2C(=O)CO` [Corticosterone], for which the EC50 in data set [1] was 0.4 nM.
Take `CC1(C)CCSc2ccc(C#Cc3ccc(C(=O)O)cn3)cc21` [Tazarotenic acid]: the EC50 in data set [2] was 32 nM; in data set [3], 3.2 nM; in data set [4] it was 25 nM.
On to `O=C(O)Cc1cccc(OCCCN(Cc2cccc(C(F)(F)F)c2Cl)CC(c2ccccc2)c2ccccc2)c1` [GW3965], for which the EC50 in data set [5] worked out at 200 nM.
In the case of `CCN(CC)CC#CCOC(=O)C(O)(c1ccccc1)C1CCCCC1` (stereo not shown) [oxybutynin], the “nH (hill coefficient)” value in data set [6] is listed as 0.8.
One may read the inhibition as how much of the control response was suppressed. `Clc1cccc(C(c2ccc3[nH]cnc3c2)n2ccnc2)c1` (stereo not shown) [Liarozole]: the inhibition at 0.1 µM in data set [7] (0.1 µM compound, substrate androstenedione, calculated from decrease in metabolite formation, read-out: % Inhibition (reduction of CYP19 activity)) was 61.1%. In data set [7] (reference concentration 1000 nM, androstenedione 1000 nM, 30 min, 37°C), this compound registered an inhibition at 1 µM of 83.8%.
For orientation: IC50 means the concentration that gives 50% inhibition. High values mean weaker potency, low ones greater potency. In data set [8], `COC(=O)[C@H](c1ccccc1Cl)N1CCc2sccc2C1` [clopidogrel] yielded an IC50 of 370 nM. In addition, the “nH (hill coefficient)” value in data set [8] (substrate bupropion) was found to be 1.3.

The values are drawn from PMC9060145 (Skin Health and Disease, 2021).
